Data published in US12642795B2, “MRGPRX2 antagonist for the treatment of pseudo allergic reactions” (The University of Hong Kong, priority 2021, dated 2026).

Tests used:
[1] = test system: C57/BL/6N mice; assay: In-vivo systemic anaphylaxis mice model (C48/80 induced); parameters: species or system mouse; settings: 5 mg/kg intraperitoneally, C48/80 8 mg/kg intraperitoneally
Experimental: Animals (C57/BL/6N aged 6-8 weeks old, n=6-8/group) were transported to the procedure area the day before injections to minimize stress. The antagonists (GE0117, GE1109, or GE1111) or vehicle was injected intraperitoneally, and mice were kept in the cage for 30 minutes. After 30 minutes of saline (negative control), 8 mg/kg of C48/80 was injected intraperitoneally. The volume of intraperitoneal injection was 10 ml/kg body weight as per AAALAC guidelines. The injection site was swabbed with cotton soaked in 70% alcohol, and the mouse was placed in a separate cage as one mouse per cage. Body core temperature was measured before (basal) and after the injections with an IR non-contact thermometer for one hour. Also, mice were monitored for anaphylaxis symptoms/severity and scored from 0-5 for 1 h or until death following C48/80 injection, whichever was first. Briefly, the scoring system was followed as 0, no symptoms; 1, scratching and rubbing around the nose and head; 2, puffiness around the eyes and mouth, diarrhea, pilar erecti, reduced activity, and/or decreased activity with an increased respiratory rate; 3, wheezing, labored respiration, and cyanosis around the mouth and the tail; 4, no activity after prodding or tremor and convulsion; 5, death. The body core temperature and anaphylaxis score were plotted using Graph Pad Prism.

[2] = test system: human LAD2 MCs; assay: Monocyte chemoattractant protein-1 (MCP-1) measurement by ELISA; format: cell-based; settings: 12.5 μM, 25 μM and 50 μM; compared to C48/80 control
Experimental: MCP-1 and PGD2 were measured from human LAD2 MCs via individual ELISA kits. Briefly, MCs were seeded at a density of 1.5×10^5 cells/80 μL/well in a 96 well plate in complete Stem-Pro 34 media. […] The cells were centrifuged to collect the supernatant and stored at −80° C. until analyzed. […] After 24 hours, cells were centrifuged to discard the media and lysed with 0.1M potassium phosphate via sonication. The supernatant of cell lysate was collected and stored at −80° C. until analyzed. MCP-1 (Abcam, Cambridge, UK) and PGD2 (Cayman Chemicals, MI, USA) were quantified by ELISA according to manufacturer instruction.

[3] = test system: Human LAD-2 mast cells; assay: β-Hexosaminidase MCs degranulation assay; format: cell-based; settings: LAD2, LAD-2 MCs, followed by EC90 concentration (10 μM) of C48/80
Experimental: Human LAD-2 mast cells were seeded at 2×10^4 cells/well/80 μL in a 96-well plate. A 10× stock of antagonist were prepared in HEPES buffer (HEPES (10 mM), NaCl (137 mM), KCl (2.7 mM), Na2HPO4·7H2O (0.4 mM), glucose (5.6 mM), CaCl2·2H2O (1.8 mM), MgSO4·7H2O (1.3 mM), bovine serum albumin (0.04%), pH 7.4). […] The plate was spun at 450×g for 5 minutes at room temperature, and 50 μL of supernatant was aliquoted to a new 96 well plate. The cells were lysed with 100 μL of 0.1% Triton X-100, and 50 μL of lysate was aliquoted to another 96 well plates. A 1.3 mg/ml solution of the substrate PNAG (4-Nitrophenyl N-acetyl-β-D-glucosaminide) was prepared in 0.1 M citric acid/sodium citrate buffer (pH 4.5, 24.087 g/L Sodium Citrate dihydrate, and 3.471 g/L Citric Acid). 50 μL of PNAG was added to each well of supernatant and lysate, and cells were incubated for 90 min at 37° C. (without CO2). The reaction was stopped by adding 50 μL of 0.4 M Glycine buffer. The extent of yellow color was measured at 405 nm using Victor 4× plate reader (PerkinElmer), and percentage MCs degranulation (β-hexosaminidase release) was calculated by using the formula; % MCs degranulation: […]

[4] = molecular target: T1, MRGPRX2 (Homo sapiens, UniProt Q96LB1); assay: MRGPRX2 activation assay (PRESTO-Tango assay); format: cell-based; settings: MRGPRX2-Tango transfected HTLA cells, followed by EC90 concentration (10 μM) of C48/80
T1 construct: expressed in transfected cells; host or cells: HTLA cells
T1 sequence (Q96LB1 1-330): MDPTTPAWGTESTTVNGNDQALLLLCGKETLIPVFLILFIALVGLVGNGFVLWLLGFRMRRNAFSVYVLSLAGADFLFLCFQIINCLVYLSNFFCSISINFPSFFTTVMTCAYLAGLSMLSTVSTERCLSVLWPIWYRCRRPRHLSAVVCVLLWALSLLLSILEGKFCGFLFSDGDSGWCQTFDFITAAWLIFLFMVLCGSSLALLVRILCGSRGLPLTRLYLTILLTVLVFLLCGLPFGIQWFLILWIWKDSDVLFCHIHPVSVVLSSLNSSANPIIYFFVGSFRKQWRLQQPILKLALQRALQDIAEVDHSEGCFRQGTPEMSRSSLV
Experimental: On day 1 of the experiment, HTLA cells were seeded at 1×10^6 cells per 100 mm cell culture dish for transfection. On the following day (day 2), HTLA cells were transfected with Tango MRGPRX2 DNA using the Lipofectamine transfection reagent (Thermo Fischer Scientific). On day 3, Tango MRGPRX2 transfected cells were transferred into 96-well white clear-bottom cell culture plates at a density of 2×10^4 cells/well/80 μL (PerkinElmer Life Science).

[5] = test system: C57/BL/6N mice; assay: In-vivo local anaphylaxis/pseudo allergic mice model (C48/80 induced); parameters: species or system mouse; settings: 5 mg/kg intraperitoneally, vs C48/80 mice; for increase in paw thickness: 15 min after C48/80 (30 μg/ml) in paw; for Evans blue dye extravasation: 15 min after C48/80 (30 μg/ml)
Excerpt: Young adult male mice (C57/BL/6N aged 6-8 weeks old, n=6/group) were used to measure the local anaphylaxis activity by measuring Evans blue tissue extravasation in paw and ear tissue. The animal experiments were approved by the Committee on the Use of Live Animals in Teaching and Research (CULATR) (Animal ethical approval number CULATR 5125-19). Mice were anesthetized via intraperitoneal injection of ketamine and xylazine, and paw thickness was measure using a Vernier caliper. The antagonists (GE0117, GE1109, and GE1111) were injected at a dose of 5 mg/kg body weight via intraperitoneal injection followed by a tail vein injection of 50 μL 12.5% Evans blue in saline (irrespective of the bodyweight). After thirty minutes, C48/80 (10 μL of 30 μg/ml) was injected into one paw and ear, while saline was injected into the other paw and ear as a negative control. After fifteen minutes, the paw and ear tissue were photographed, and the paw thicknesses were measured again to calculate % increase in paw thickness. Mice were euthanized by cervical dislocation under anesthesia, and the collected paw and ear tissues were dried at 50° C. for 24 hours and weighed separately. Evans blue was extracted with formamide (500 μL/tissue) by incubating at 50° C. for 24 h. The supernatant was aliquoted into 96-well plates (200 μL/well, duplicate), and OD was measure at 595 nm using a Victor 4× plate reader (PerkinElmer). The paw edema/inflammation was measured as % increase in paw thickness=

[6] = test system: Human LAD-2 MCs; assay: Intracellular Ca2+ flux assay (Fluo-4 NW); format: cell-based; settings: LAD2 MCs; for efficacy in Ca2+ flux reduction at 12.5 μM, 25 μM and 50 μM: ****P<0.0001 vs C48/80; for reduction of C48/80 induced Ca2+ flux: C48/80 EC90 concentration
Experimental: The intracellular Ca^2+ flux was measured in human LAD-2 MCs by using the Fluo-4 NW calcium assay kit and the protocol according to the manufacturer (Molecular Probe, Invitrogen, USA). Briefly, LAD-2 cells were plated in a 96-well black well plate (SPL Life Sciences) at a density of 1×10^5 cells/well/40 μL in assay buffer and incubated for 1 h at 37° C. incubators. After 1 h, 40 μL of the 2× dye loading solution and antagonist or buffer was added to the cells (10 μL of 10× stock). […] After one hour of incubation, a graded concentration of agonist or buffer was added to the cells (10 μL of 10× stock). The fluorescence was measured at an excitation wavelength of 494 nm and an emission wavelength of 516 nm using Victor 4× plate reader (PerkinElmer) for 150 seconds. The ΔF was calculated by […] and plotted by using Graph Pad Prism.

[7] = test system: mice ear tissue MCs; assay: Histological analysis of ear tissue (H&E, Toluidine blue; in-vivo MCs degranulation); parameters: species or system mouse; settings: 5 mg/kg intraperitoneally, vs C48/80 treated group
Experimental: The mice were anesthetized with ketamine/xylazine and were injected with antagonists (GE0117, GE1109, and GE1111) at a dose of 5 mg/kg body weight intraperitoneally. After 30 minutes, C48/80 (10 μL of 30 μg/ml) and saline (as negative control) were injected into the ear. Fifteen minutes later, the mice were sacrificed, and the injection site of the ear was excised, washed with PBS, and fixed with 10% buffered formalin for 24 h. After 24 hours, the ear tissue was dehydrated in a graded concentration of ethanol (30%, 50% & 70% ethanol every 24 hours) at 4° C. Further, the tissue was processed in an automated tissue processor (Leica ASP300) and embedded into paraffin using Embedding Centre (Leica EG1150). The paraffin-embedded tissue was sectioned at […] size using a fully automatic Microtome (Leica RM2265). The tissue sections were subjected to H&E staining using an automated slide Stainer (Leica ST5020) using standard staining protocol. After staining, the slides were dried under a fume hood and mounted with DPX. For the MCs detection, the sectioned ear tissue was subjected to Toluidine blue O staining according to the available online protocol (http://www.ihcworld.com/_protocols/special_stains/toluidine_blue.htm). Images were captured under 10× and 20× magnification using a Nikon Eclipse Ni-U, upright microscope, and Nikon DS-Ri2 microscopic camera (Nikon, Tokyo, Japan).

SMILES	C48/80 induced body temperature change at 35 minutes [1]	inhibition of C48/80 induced MCP-1 release [2]	IC50 [3] [µM]	IC50 [4] [µM]	increase in paw thickness [5]	Evans blue dye extravasation [5]	efficacy in Ca2+ flux reduction at 12.5 μM, 25 μM and 50 μM [6]	reduction of C48/80 induced Ca2+ flux [6]	percentage of degranulated MCs in ear tissue [7]	C48/80 induced body temperature changes at 30 minutes [1]	systemic anaphylaxis symptoms (score 0-5) ([1]; 1 h)
COC(=O)c1ccc2cc(-c3cc4c5c(cccc5c3)C(=O)N(C)C4=O)c(NC(N)=O)cc2c1 [GE0117]	significantly reversed the body temperature change	significantly inhibits the release of MCP-1 at all the tested concentrations	20.8	9.79	significantly (***P<0.001) attenuated	significantly (***P<0.001) attenuated	higher efficacy at all three concentrations	significant concentration-dependent reduction			
COC(=O)c1ccc2cc(-c3cc4c5c(cccc5c3)C(=O)N(C)C4=O)c(C(=O)OC)cc2c1 [GE0118]			18.2	8.91				significant concentration-dependent reduction			
COC(=O)c1cc2cc(NC(N)=O)ccc2cc1-c1cc2c3c(cccc3c1)C(=O)N(C)C2=O [GE0119]			25.5	20.1				significant concentration-dependent reduction			
COC(=O)c1cc2cc(NC(N)=O)ccc2cc1-c1ccc2c3c(cccc13)C(=O)C=C2 [GE1109]	significantly reversed the body temperature change	significant activity only at 25 μM, and 50 μM	9.87	7.14	significant (*P<0.05) antagonizing activity	significant (*P<0.05) antagonizing activity	higher efficacy at all three concentrations	significant concentration-dependent reduction	reduces the MCs degranulation	reversed the C48/80 induced body temperature changes	
COC(=O)c1ccc2cc(-c3cc4c5c(c(O)ccc5c3)C(C)C(C=O)=C4)c(C(=O)OC)cc2c1 (stereo not drawn) [GE1110]			23.4	8.93			higher efficacy at all three concentrations	significant concentration-dependent reduction			
COC(=O)c1cc2cc(NC(N)=O)ccc2cc1-c1cc2c3c(c(O)ccc3c1)C(C)C(C=O)=C2 (stereo not drawn) [GE1111]	significantly reversed the body temperature change	significantly inhibits the release of MCP-1 at all the tested concentrations	4.7	9.42	significantly (***P<0.001) attenuated	significantly (***P<0.001) attenuated	higher efficacy at all three concentrations	significant concentration-dependent reduction	reduces the MCs degranulation	reversed the C48/80 induced body temperature changes	rehabilitated the compound 48/80 induced hypothermia and severity of anaphylaxis symptoms
O=c1c(-c2ccc(O)cc2)coc2cc(O)cc(O)c12 [genistein, reference compound]	significantly reversed the body temperature change		30.3	31.7	significant (*P<0.05) antagonizing activity	significant (*P<0.05) antagonizing activity		significant (**P<0.001) Ca^2+ flux reduction at 50 μM concentration only			
